# Measurements taken from patent US5024994A, “Renin inhibitors IV” (Warner-Lambert Company, priority 1988, dated 1991).
# Non-standard residues stand in square brackets, D forms with d. Residues, ends and D or L forms follow the SMILES beside them. *: point of attachment. Arg(NO2) = N=C(NCCC[C@H](N)C(=O)O)N[N+](=O)[O-]; Sta = CC(C)C[C@H](N)[C@@H](O)CC(=O)O; Boc = CC(C)(C)OC(=O)*; NHBn = c1ccc(CN*)cc1
# Biological target: T1, renin (Homo sapiens, UniProt P00797)
# T1 sequence (P00797 67-406): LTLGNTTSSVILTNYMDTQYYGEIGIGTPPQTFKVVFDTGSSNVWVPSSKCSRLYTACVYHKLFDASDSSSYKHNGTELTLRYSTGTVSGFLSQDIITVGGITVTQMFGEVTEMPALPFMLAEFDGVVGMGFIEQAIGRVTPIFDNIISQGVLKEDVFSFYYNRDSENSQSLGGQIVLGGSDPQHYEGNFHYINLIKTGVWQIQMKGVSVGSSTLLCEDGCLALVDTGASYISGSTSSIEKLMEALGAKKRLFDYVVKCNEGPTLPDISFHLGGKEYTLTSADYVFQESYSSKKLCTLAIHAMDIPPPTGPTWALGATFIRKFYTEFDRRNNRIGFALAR
# Test: in vitro renin inhibitory activity, radioimmunoassay for angiotensin I
# Type: biochemical
# Conditions: not given
# Experimental: The effectiveness of the aforementioned compounds is determined by a test for in vitro renin inhibitory activity. This activity is determined by a standard radioimmunoassay for angiotensin I. In this assay the enzyme, renin, incubated for two hours at 37° in the presence of a substrate, angiotensinogen, generates the product, angiotensin I. Test compounds are added to the incubation mixture.
row,Compound,IC50 [nM]
1,"CCC(C)CNC(=O)C[C@H](O)[C@H](CC(C)C)NC(=O)C(CC#CCNC(C)=O)NC(=O)C(Cc1cccc2ccccc12)Cc1cccc2ccccc12 (single isomer, unassigned)",29
2,"CC(C)C[C@H](NC(=O)C[C@H](O)[C@H](CC(C)C)NC(=O)C(CCCC1CO1)NC(=O)C(Cc1cccc2ccccc12)Cc1cccc2ccccc12)C(=O)NCc1ccccc1 (single isomer, unassigned) [drawing 65]",57
3,"CC[C@H](C)CNC(=O)C[C@H](O)[C@H](CC(C)C)NC(=O)[C@H](CCCCNS(=O)(=O)c1ccc(C)cc1)NC(=O)C(Cc1cccc2ccccc12)Cc1cccc2ccccc12 [Example 41, DNMA-LYS(TOS)-STA-NHCH2 CH(CH3)CH2 CH3]",3000

# Same assay, conditions: at 10^-6 molar concentration; read-out: percent inhibition of renin activity
row,Compound,inhibition at 1 µM [%]
1,"CC(C)C[C@H](NC(=O)C[C@H](O)[C@H](CC(C)C)NC(=O)C(CCCC1CO1)NC(=O)C(Cc1cccc2ccccc12)Cc1cccc2ccccc12)C(=O)NCc1ccccc1 (single isomer, unassigned) [drawing 66]",47

# Same assay, conditions: read-out: IC50
row,Compound,IC50 [nM]
1,CSC(=NC#N)NCCCC[C@H](NC(=O)C(CC(=O)N1CCOCC1)Cc1cccc2ccccc12)C(=O)N[C@@H](CC(C)C)[C@@H](O)CC(=O)NCCN1CCOCC1 (stereo partly shown),350
2,CC(C)C[C@H](NC(=O)[C@H](CCCCNC(=N)N[N+](=O)[O-])NC(=O)C(CC(=O)N1CCOCC1)Cc1cccc2ccccc12)[C@@H](O)CC(=O)NCCN1CCOCC1 (stereo partly shown),420
3,CNC(=S)NCCCC[C@H](NC(=O)C(CC(=O)N1CCOCC1)Cc1cccc2ccccc12)C(=O)N[C@@H](CC1CCCCC1)[C@@H](O)CC(=O)NCCN1CCOCC1 (stereo partly shown),20
4,"CC(C)C[C@H](NC(=O)C[C@H](O)[C@H](CC(C)C)NC(=O)[C@H](CCCNC(=N)N[N+](=O)[O-])NC(=O)[C@H](Cc1ccccc1)NC(=O)OC(C)(C)C)C(=O)NCc1ccccc1 [Example 1, BOC-PHE-ARG(NO2)-STA-LEU-NHCH2 Ph] (Boc-F[Arg(NO2)][Sta]L-NHBn)",63
5,"CC(C)C[C@H](NC(=O)C[C@H](O)[C@H](CC(C)C)NC(=O)[C@H](CCCN1C(=O)c2ccccc2C1=O)NC(=O)[C@H](Cc1ccccc1)NC(=O)OC(C)(C)C)C(=O)NCc1ccccc1 [Example 4, BOC-PHE-ORN(PHT)-STA-LEU-NHCH2 Ph]",910

# More lines, now with the values ahead:
row,IC50 [nM],Compound
1,41,CC[C@H](C)CNC(=O)C[C@H](O)[C@H](CC(C)C)NC(=O)[C@H](CCCCNC(=O)C[S+](C)[O-])NC(=O)C(Cc1cccc2ccccc12)Cc1cccc2ccccc12 (stereo partly shown)
2,23,CC[C@H](C)CNC(=O)C[C@H](O)[C@@H](NC(=O)[C@H](CCCCNC(=S)NC)NC(=O)C(Cc1cccc2ccccc12)Cc1cccc2ccccc12)C1CCCCC1
3,560,CNC(=S)NCCCC[C@H](NC(=O)C(CC(=O)N1CCOCC1)Cc1cccc2ccccc12)C(=O)N[C@@H](CC(C)C)[C@@H](O)CC(=O)NCCN1CCOCC1 (stereo partly shown)
4,29,CNC(=S)NCCCC[C@H](NC(=O)C(Cc1cccc2ccccc12)Cc1cccc2ccccc12)C(=O)N[C@@H](CC1CCCCC1)[C@@H](O)CC(=O)NCCN1CCOCC1
5,120,CNC(=S)NCCCC[C@H](NC(=O)C(Cc1cccc2ccccc12)Cc1cccc2ccccc12)C(=O)N[C@@H](CC(C)C)[C@@H](O)CC(=O)NCCN1CCOCC1
6,45,CC(C)C[C@H](NC(=O)[C@H](CCCCNC(=N)N[N+](=O)[O-])NC(=O)C(Cc1cccc2ccccc12)Cc1cccc2ccccc12)[C@@H](O)CC(=O)NCCN1CCOCC1
7,90,CSC(=NC#N)NCCCC[C@H](NC(=O)C(Cc1cccc2ccccc12)Cc1cccc2ccccc12)C(=O)N[C@@H](CC(C)C)[C@@H](O)CC(=O)NCCN1CCOCC1
8,140,CC[C@H](C)CNC(=O)C[C@H](O)[C@H](CC(C)C)NC(=O)[C@H](CCCCNC(=S)NC)NC(=O)C(Cc1ccccc1)Cc1cccc2ccccc12 (stereo partly shown)
9,13,CCOC(=O)C(NC(=O)C(Cc1cccc2ccccc12)Cc1cccc2ccccc12)C(=O)N[C@@H](CC(C)C)[C@@H](O)CC(=O)N[C@@H](CC(C)C)C(=O)NCc1ccccn1 (stereo partly shown)
10,91,"C=CCCCC(NC(=O)C(Cc1cccc2ccccc12)Cc1cccc2ccccc12)C(=O)N[C@@H](CC(C)C)[C@@H](O)CC(=O)N[C@@H](CC(C)C)C(=O)NCc1ccccc1 (single isomer, unassigned; isomer a) [Example 48, DNMA-NHCH(CH2 CH2 CH2 CH=CH2)CO-STA-LEU-NHCH2 Ph (ISOMER A)]"
11,3500,"C=CCCCC(NC(=O)C(Cc1cccc2ccccc12)Cc1cccc2ccccc12)C(=O)N[C@@H](CC(C)C)[C@@H](O)CC(=O)N[C@@H](CC(C)C)C(=O)NCc1ccccc1 (single isomer, unassigned; isomer b) [Example 49, DNMA-NHCH(CH2 CH2 CH2 CH=CH2)CO-STA-LEU-NHCH2 Ph (ISOMER B)]"
12,60,"CC[C@H](C)CNC(=O)C[C@H](O)[C@H](CC(C)C)NC(=O)[C@H](CCCCNC(=O)OC)NC(=O)C(Cc1cccc2ccccc12)Cc1cccc2ccccc12 [Example 42, DNMA-LYS(CO2 CH3)-STA-NHCH2 CH(CH3)CH2 CH3]"

# Same assay, conditions: renin incubated two hours at 37° with angiotensinogen; molar concentration causing 50% inhibition; read-out: IC50
row,Compound,IC50 [nM]
1,DNMA-LYS(Z)-STA-LEU-NHCH2 Ph,2900
